Measured values taken from US9562085B2, “Antimicrobial peptide” (priority 2013, dated 2017).
Residues, ends and D or L forms follow the SMILES beside them. *: point of attachment. Propionyl = CCC(=O)*

Each molecule was assayed on S. aureus JAR. Settings: JAR, 2 h.
Format: cell-based
Protocol: S. aureus JAR is described in Campoccia et al. (Int. J. Artif. Organs, 2008 September; 31(9):841-7).
For the in vitro killing assay with P10 variants, S. aureus JAR ([…] CFU/ml) were incubated for 2 hours at 37° C. with various concentrations of the peptides in PBS or in PBS/human plasma (1/1, v/v). […] The LC99.9 is the average value of two independent experiments.

Molecule	LC99.9 (μM) (50% plasma)	LC99.9 (μM) (PBS)
Ac-LAREYKHIVEKLKRWLRQVLRTLR-NH2 [Peptide 1302-30, JLAREYKHIVEKLKRWLRQVLRTLRB]	102.4 µM	3.2 µM
Ac-LAREYKKIVEKAKRWLRQVLRTLR-NH2 [Peptide 1302-36, JLAREYKKIVEKAKRWLRQVLRTLRB]	76.8 µM	3.2 µM
Ac-LAREYKKIVEKIKRWLRQVLRTLR-NH2 [Peptide 1302-33, JLAREYKKIVEKIKRWLRQVLRTLRB]	102.4 µM	3.2 µM
Ac-LAREYKKIVEKLHRWLRQVLRTLR-NH2 [Peptide 1302-37, JLAREYKKIVEKLHRWLRQVLRTLRB]	102.4 µM	3.2 µM
Ac-LAREYKKIVEKLKHWLRQVLRTLR-NH2 [Peptide 1302-39, JLAREYKKIVEKLKHWLRQVLRTLRB]	102.4 µM	3.2 µM
Ac-LAREYKKIVEKLKKWLRQVLRTLR-NH2 [Peptide 1302-38, JLAREYKKIVEKLKKWLRQVLRTLRB]	102.4 µM	2.4 µM
Ac-LAREYKKIVEKLKRFLRQVLRTLR-NH2 [Peptide 1302-40, JLAREYKKIVEKLKRFLRQVLRTLRB]	76.8 µM	1.6 µM
Ac-LAREYKKIVEKLKRWLHQVLRTLR-NH2 [Peptide 1302-41, JLAREYKKIVEKLKRWLHQVLRTLRB]	102.4 µM	1.6 µM
Ac-LAREYKKIVEKLKRWLRAVLRTLR-NH2 [Peptide 1302-43, JLAREYKKIVEKLKRWLRAVLRTLRB]	102.4 µM	1.6 µM
Ac-LAREYKKIVEKLKRWLRNVLRTLR-NH2 [Peptide 1302-42, JLAREYKKIVEKLKRWLRNVLRTLRB]	76.8 µM	1.6 µM

Same assay, conditions: S. aureus JAR, 2 hours at 37° C. in PBS/human plasma (1/1, v/v); concentration killing 99.9% of the bacteria; average of two experiments

Molecule	LC99.9 (μM) (50% plasma)
CCC(=O)N[C@@H](CC(C)C)C(=O)N[C@@H](C)C(=O)N[C@@H](CCCNC(=N)N)C(=O)N[C@@H](CCC(=O)O)C(=O)N[C@@H](Cc1ccc(O)cc1)C(=O)N[C@@H](CCCCN)C(=O)N[C@@H](CCCCN)C(=O)N[C@H](C(=O)N[C@H](C(=O)N[C@@H](CCC(=O)O)C(=O)N[C@@H](CCCCN)C(=O)N[C@@H](CC(C)C)C(=O)N[C@@H](CCCCN)C(=O)N[C@@H](CCCNC(=N)N)C(=O)N[C@@H](Cc1c[nH]c2ccccc12)C(=O)N[C@@H](CC(C)C)C(=O)N[C@@H](CCCNC(=N)N)C(=O)N[C@@H](CCC(N)=O)C(=O)N[C@H](C(=O)N[C@@H](CC(C)C)C(=O)N[C@@H](CCCNC(=N)N)C(=O)N[C@H](C(=O)N[C@@H](CC(C)C)C(=O)N[C@@H](CCCNC(=N)N)C(N)=O)[C@@H](C)O)C(C)C)C(C)C)[C@@H](C)CC [Peptide 1302-11, ULAREYKKIVEKLKRWLRQVLRTLRB] (Propionyl-LAREYKKIVEKLKRWLRQVLRTLR-NH2)	102.4 µM

Same assay, conditions: S. aureus JAR, 2 hours at 37° C. in PBS; concentration killing 99.9% of the bacteria; average of two experiments

Molecule	LC99.9 (μM) (PBS)
CCC(=O)N[C@@H](CC(C)C)C(=O)N[C@@H](C)C(=O)N[C@@H](CCCNC(=N)N)C(=O)N[C@@H](CCC(=O)O)C(=O)N[C@@H](Cc1ccc(O)cc1)C(=O)N[C@@H](CCCCN)C(=O)N[C@@H](CCCCN)C(=O)N[C@H](C(=O)N[C@H](C(=O)N[C@@H](CCC(=O)O)C(=O)N[C@@H](CCCCN)C(=O)N[C@@H](CC(C)C)C(=O)N[C@@H](CCCCN)C(=O)N[C@@H](CCCNC(=N)N)C(=O)N[C@@H](Cc1c[nH]c2ccccc12)C(=O)N[C@@H](CC(C)C)C(=O)N[C@@H](CCCNC(=N)N)C(=O)N[C@@H](CCC(N)=O)C(=O)N[C@H](C(=O)N[C@@H](CC(C)C)C(=O)N[C@@H](CCCNC(=N)N)C(=O)N[C@H](C(=O)N[C@@H](CC(C)C)C(=O)N[C@@H](CCCNC(=N)N)C(N)=O)[C@@H](C)O)C(C)C)C(C)C)[C@@H](C)CC [Peptide 1302-11, ULAREYKKIVEKLKRWLRQVLRTLRB] (Propionyl-LAREYKKIVEKLKRWLRQVLRTLR-NH2)	1.6 µM
